Source: ChEMBL document CHEMBL1145498, “A systematic interaction map of validated kinase inhibitors with Ser/Thr kinases” (Proc Natl Acad Sci U S A, 2007)

target: Serine/threonine-protein kinase PAK 4 (Homo sapiens) (UniProt O96013)
Sequence (O96013 whole entry, looked up): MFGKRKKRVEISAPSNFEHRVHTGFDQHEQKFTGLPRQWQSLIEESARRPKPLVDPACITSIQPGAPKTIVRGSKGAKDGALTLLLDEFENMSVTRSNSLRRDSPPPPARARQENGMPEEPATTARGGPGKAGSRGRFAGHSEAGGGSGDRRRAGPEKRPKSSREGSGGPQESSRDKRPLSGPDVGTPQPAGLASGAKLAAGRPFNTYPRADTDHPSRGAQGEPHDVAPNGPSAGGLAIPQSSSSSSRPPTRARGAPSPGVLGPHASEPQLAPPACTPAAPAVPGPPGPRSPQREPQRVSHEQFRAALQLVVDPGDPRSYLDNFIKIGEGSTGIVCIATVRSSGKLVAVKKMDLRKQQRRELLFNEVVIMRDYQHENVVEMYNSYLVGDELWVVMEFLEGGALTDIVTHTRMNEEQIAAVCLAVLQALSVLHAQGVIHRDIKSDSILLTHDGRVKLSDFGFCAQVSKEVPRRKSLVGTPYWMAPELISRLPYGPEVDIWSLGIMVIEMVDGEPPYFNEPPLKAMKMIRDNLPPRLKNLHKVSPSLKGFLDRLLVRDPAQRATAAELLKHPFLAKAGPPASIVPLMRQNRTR

Row | ΔTm | Compound
1 | 0.4 °C | Cc1ccc(NC(=O)c2cccc(N(C)C)c2)cc1NC(=O)c1ccc(O)cc1
2 | 3.8 °C | O=C1NC(=O)c2c1c1c3ccccc3[nH]c1n1cncc21 [ISOGRANULATIMIDE]
3 | -0.3 °C | Nc1n[nH]c2nc3ccccc3nc12 [QUINOXALINE1]

Row | Compound | ΔTm
4 | CCCCc1c(-c2ccc(O)cc2)[nH]c2nccnc12 [ALOISINE A] | 2.6 °C
5 | COc1cc(C[C@H]2C(=O)OC[C@@H]2Cc2ccc(OC)c(OC)c2)ccc1O [ARCTIGENIN] | 0.8 °C

target: Ribosomal protein S6 kinase alpha-3 (Homo sapiens) (UniProt P51812)
Sequence (P51812 whole entry): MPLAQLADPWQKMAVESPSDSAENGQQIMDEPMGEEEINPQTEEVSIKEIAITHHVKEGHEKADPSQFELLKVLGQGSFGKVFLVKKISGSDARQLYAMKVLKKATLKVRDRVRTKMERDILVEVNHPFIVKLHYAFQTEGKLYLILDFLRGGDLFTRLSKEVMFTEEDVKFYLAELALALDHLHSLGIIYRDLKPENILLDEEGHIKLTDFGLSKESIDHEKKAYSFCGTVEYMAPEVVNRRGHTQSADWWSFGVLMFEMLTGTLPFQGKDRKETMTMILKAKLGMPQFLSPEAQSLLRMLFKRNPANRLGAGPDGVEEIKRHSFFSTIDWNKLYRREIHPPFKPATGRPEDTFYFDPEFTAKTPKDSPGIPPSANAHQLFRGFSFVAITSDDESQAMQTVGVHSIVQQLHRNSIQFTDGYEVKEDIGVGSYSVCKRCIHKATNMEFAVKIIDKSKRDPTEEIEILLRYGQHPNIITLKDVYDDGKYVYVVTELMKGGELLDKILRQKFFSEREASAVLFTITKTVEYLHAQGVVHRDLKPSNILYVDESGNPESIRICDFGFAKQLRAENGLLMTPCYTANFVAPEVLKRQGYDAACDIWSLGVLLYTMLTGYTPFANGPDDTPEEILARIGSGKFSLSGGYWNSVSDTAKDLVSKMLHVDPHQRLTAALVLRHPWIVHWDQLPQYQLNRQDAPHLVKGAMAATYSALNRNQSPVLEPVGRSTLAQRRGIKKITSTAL

Row | ΔTm | Compound
6 | 0.2 °C | Cc1ccc(NC(=O)c2cccc(N(C)C)c2)cc1NC(=O)c1ccc(O)cc1
7 | 5.2 °C | O=C1NC(=O)c2c1c1c3ccccc3[nH]c1n1cncc21 [ISOGRANULATIMIDE]
8 | 0.4 °C | Nc1n[nH]c2nc3ccccc3nc12 [QUINOXALINE1]

Row | Compound | ΔTm
9 | CCCCc1c(-c2ccc(O)cc2)[nH]c2nccnc12 [ALOISINE A] | 3 °C
10 | COc1cc(C[C@H]2C(=O)OC[C@@H]2Cc2ccc(OC)c(OC)c2)ccc1O [ARCTIGENIN] | -0.2 °C

target: T1, Serine/threonine-protein kinase 4 (Homo sapiens) (UniProt Q13043)
T1 sequence (whole entry): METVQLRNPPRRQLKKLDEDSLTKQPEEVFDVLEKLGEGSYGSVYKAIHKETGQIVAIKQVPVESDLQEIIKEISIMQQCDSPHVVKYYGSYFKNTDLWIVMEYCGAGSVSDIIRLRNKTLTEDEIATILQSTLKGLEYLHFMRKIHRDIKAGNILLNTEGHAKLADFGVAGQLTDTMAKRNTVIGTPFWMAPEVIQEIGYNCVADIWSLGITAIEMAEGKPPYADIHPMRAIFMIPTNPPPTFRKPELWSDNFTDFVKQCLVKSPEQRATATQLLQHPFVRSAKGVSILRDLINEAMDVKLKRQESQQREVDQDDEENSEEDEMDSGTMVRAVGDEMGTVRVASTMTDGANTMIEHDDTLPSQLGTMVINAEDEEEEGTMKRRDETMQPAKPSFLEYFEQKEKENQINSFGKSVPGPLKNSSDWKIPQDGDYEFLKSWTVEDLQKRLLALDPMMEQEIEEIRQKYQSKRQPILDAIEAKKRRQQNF

Row | ΔTm | Compound
11 | 0 °C | Cc1ccc(NC(=O)c2cccc(N(C)C)c2)cc1NC(=O)c1ccc(O)cc1
12 | 2.5 °C | O=C1NC(=O)c2c1c1c3ccccc3[nH]c1n1cncc21 [ISOGRANULATIMIDE]
13 | 0.8 °C | Nc1n[nH]c2nc3ccccc3nc12 [QUINOXALINE1]

Row | Compound | ΔTm
14 | CCCCc1c(-c2ccc(O)cc2)[nH]c2nccnc12 [ALOISINE A] | -0.2 °C
15 | COc1cc(C[C@H]2C(=O)OC[C@@H]2Cc2ccc(OC)c(OC)c2)ccc1O [ARCTIGENIN] | 0.8 °C

target: T2, Lymphokine-activated killer T-cell-originated protein kinase (Homo sapiens) (UniProt Q96KB5)
T2 sequence (whole entry): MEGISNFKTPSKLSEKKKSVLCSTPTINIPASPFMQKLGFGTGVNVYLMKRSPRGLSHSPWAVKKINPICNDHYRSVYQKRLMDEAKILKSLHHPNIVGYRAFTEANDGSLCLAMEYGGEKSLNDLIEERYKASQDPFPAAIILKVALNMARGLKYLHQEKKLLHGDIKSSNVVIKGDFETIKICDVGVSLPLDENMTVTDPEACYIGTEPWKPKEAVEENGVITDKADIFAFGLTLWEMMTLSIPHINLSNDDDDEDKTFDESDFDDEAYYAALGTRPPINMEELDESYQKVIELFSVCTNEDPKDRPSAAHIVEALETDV

Row | Compound | ΔTm
16 | Cc1ccc(NC(=O)c2cccc(N(C)C)c2)cc1NC(=O)c1ccc(O)cc1 | 0.4 °C
17 | O=C1NC(=O)c2c1c1c3ccccc3[nH]c1n1cncc21 [ISOGRANULATIMIDE] | 1 °C
18 | Nc1n[nH]c2nc3ccccc3nc12 [QUINOXALINE1] | 0.5 °C
19 | CCCCc1c(-c2ccc(O)cc2)[nH]c2nccnc12 [ALOISINE A] | 0.7 °C
20 | COc1cc(C[C@H]2C(=O)OC[C@@H]2Cc2ccc(OC)c(OC)c2)ccc1O [ARCTIGENIN] | -0.7 °C

target: Cyclin-dependent kinase 2 (Homo sapiens, UniProt P24941)

Row | ΔTm | Compound
21 | 0.3 °C | Cc1ccc(NC(=O)c2cccc(N(C)C)c2)cc1NC(=O)c1ccc(O)cc1
22 | 5.2 °C | O=C1NC(=O)c2c1c1c3ccccc3[nH]c1n1cncc21 [ISOGRANULATIMIDE]
23 | 1.3 °C | Nc1n[nH]c2nc3ccccc3nc12 [QUINOXALINE1]

Row | Compound | ΔTm
24 | CCCCc1c(-c2ccc(O)cc2)[nH]c2nccnc12 [ALOISINE A] | 4.7 °C
25 | COc1cc(C[C@H]2C(=O)OC[C@@H]2Cc2ccc(OC)c(OC)c2)ccc1O [ARCTIGENIN] | 0.6 °C

target: Serine/threonine-protein kinase pim-3 (Homo sapiens) (UniProt Q86V86)

Row | ΔTm | Compound
26 | 0.6 °C | Cc1ccc(NC(=O)c2cccc(N(C)C)c2)cc1NC(=O)c1ccc(O)cc1
27 | 8.8 °C | O=C1NC(=O)c2c1c1c3ccccc3[nH]c1n1cncc21 [ISOGRANULATIMIDE]
28 | 1.3 °C | Nc1n[nH]c2nc3ccccc3nc12 [QUINOXALINE1]

Row | Compound | ΔTm
29 | CCCCc1c(-c2ccc(O)cc2)[nH]c2nccnc12 [ALOISINE A] | 7.7 °C
30 | COc1cc(C[C@H]2C(=O)OC[C@@H]2Cc2ccc(OC)c(OC)c2)ccc1O [ARCTIGENIN] | 0.6 °C

target: Casein kinase I isoform gamma-2 (Homo sapiens) (UniProt P78368)
Sequence (P78368 whole entry, looked up, canonical isoform): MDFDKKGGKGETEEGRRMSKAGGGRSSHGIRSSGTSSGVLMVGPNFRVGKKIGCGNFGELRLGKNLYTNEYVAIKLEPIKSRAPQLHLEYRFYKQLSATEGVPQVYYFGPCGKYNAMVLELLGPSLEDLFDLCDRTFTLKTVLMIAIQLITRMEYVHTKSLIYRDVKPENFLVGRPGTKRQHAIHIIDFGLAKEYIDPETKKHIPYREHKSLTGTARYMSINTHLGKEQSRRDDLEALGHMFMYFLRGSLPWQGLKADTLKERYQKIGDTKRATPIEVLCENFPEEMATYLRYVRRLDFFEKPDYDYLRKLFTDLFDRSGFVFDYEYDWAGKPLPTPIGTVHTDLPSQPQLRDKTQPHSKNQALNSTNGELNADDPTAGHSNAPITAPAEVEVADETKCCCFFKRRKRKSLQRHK

Row | ΔTm | Compound
31 | 0.2 °C | Cc1ccc(NC(=O)c2cccc(N(C)C)c2)cc1NC(=O)c1ccc(O)cc1
32 | 3.6 °C | O=C1NC(=O)c2c1c1c3ccccc3[nH]c1n1cncc21 [ISOGRANULATIMIDE]
33 | 0.4 °C | Nc1n[nH]c2nc3ccccc3nc12 [QUINOXALINE1]

Row | Compound | ΔTm
34 | CCCCc1c(-c2ccc(O)cc2)[nH]c2nccnc12 [ALOISINE A] | 2.2 °C
35 | COc1cc(C[C@H]2C(=O)OC[C@@H]2Cc2ccc(OC)c(OC)c2)ccc1O [ARCTIGENIN] | 0.1 °C

target: Serine/threonine-protein kinase RIO2 (Homo sapiens) (UniProt Q9BVS4)
Sequence (Q9BVS4 whole entry, looked up): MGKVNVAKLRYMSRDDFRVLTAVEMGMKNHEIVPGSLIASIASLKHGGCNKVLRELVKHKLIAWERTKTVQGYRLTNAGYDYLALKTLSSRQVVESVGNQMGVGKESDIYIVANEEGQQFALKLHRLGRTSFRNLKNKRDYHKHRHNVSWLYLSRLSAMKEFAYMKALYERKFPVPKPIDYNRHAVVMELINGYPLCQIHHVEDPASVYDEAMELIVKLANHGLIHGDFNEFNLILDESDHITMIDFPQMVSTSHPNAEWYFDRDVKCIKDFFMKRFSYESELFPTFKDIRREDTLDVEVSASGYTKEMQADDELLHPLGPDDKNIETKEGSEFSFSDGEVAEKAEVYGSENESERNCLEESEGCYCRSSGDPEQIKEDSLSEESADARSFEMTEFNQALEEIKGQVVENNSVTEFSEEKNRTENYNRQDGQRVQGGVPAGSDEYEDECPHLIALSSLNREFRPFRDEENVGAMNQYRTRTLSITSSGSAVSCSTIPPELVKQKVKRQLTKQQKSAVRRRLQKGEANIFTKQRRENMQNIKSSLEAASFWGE

Row | ΔTm | Compound
36 | 0.2 °C | Cc1ccc(NC(=O)c2cccc(N(C)C)c2)cc1NC(=O)c1ccc(O)cc1
37 | 7.3 °C | O=C1NC(=O)c2c1c1c3ccccc3[nH]c1n1cncc21 [ISOGRANULATIMIDE]
38 | 0.4 °C | Nc1n[nH]c2nc3ccccc3nc12 [QUINOXALINE1]

Row | Compound | ΔTm
39 | CCCCc1c(-c2ccc(O)cc2)[nH]c2nccnc12 [ALOISINE A] | -1.8 °C
40 | COc1cc(C[C@H]2C(=O)OC[C@@H]2Cc2ccc(OC)c(OC)c2)ccc1O [ARCTIGENIN] | -0.2 °C

target: Serine/threonine-protein kinase 16 (Homo sapiens) (UniProt O75716)
Sequence (O75716 whole entry): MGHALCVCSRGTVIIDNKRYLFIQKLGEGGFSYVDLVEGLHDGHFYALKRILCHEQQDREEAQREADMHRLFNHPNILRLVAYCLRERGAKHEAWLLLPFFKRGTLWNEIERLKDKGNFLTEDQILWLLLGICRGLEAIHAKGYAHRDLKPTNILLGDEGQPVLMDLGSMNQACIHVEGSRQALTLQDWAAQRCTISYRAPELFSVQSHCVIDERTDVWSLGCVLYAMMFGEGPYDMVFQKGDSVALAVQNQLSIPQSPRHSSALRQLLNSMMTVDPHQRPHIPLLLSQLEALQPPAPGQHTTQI

Row | ΔTm | Compound
41 | 0.5 °C | Cc1ccc(NC(=O)c2cccc(N(C)C)c2)cc1NC(=O)c1ccc(O)cc1
42 | 7.4 °C | O=C1NC(=O)c2c1c1c3ccccc3[nH]c1n1cncc21 [ISOGRANULATIMIDE]
43 | 1.1 °C | Nc1n[nH]c2nc3ccccc3nc12 [QUINOXALINE1]

Row | Compound | ΔTm
44 | CCCCc1c(-c2ccc(O)cc2)[nH]c2nccnc12 [ALOISINE A] | 2.6 °C
45 | COc1cc(C[C@H]2C(=O)OC[C@@H]2Cc2ccc(OC)c(OC)c2)ccc1O [ARCTIGENIN] | 0 °C

target: T3, Calcium/calmodulin-dependent protein kinase type IV (Homo sapiens) (UniProt Q16566)
T3 sequence (whole entry): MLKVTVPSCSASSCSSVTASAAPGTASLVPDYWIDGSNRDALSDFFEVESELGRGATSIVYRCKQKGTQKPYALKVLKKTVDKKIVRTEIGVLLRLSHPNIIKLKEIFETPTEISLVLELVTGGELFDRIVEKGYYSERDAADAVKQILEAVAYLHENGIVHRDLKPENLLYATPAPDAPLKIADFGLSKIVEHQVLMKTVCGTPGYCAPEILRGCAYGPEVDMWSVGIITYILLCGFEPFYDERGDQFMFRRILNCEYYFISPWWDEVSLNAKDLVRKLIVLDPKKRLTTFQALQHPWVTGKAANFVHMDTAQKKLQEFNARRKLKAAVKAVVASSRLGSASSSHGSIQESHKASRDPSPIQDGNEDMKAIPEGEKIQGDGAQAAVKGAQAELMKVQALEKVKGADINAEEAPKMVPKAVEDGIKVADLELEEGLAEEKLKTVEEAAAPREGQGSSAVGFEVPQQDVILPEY

Row | ΔTm | Compound
46 | 0 °C | Cc1ccc(NC(=O)c2cccc(N(C)C)c2)cc1NC(=O)c1ccc(O)cc1
47 | 6 °C | O=C1NC(=O)c2c1c1c3ccccc3[nH]c1n1cncc21 [ISOGRANULATIMIDE]
48 | 0.3 °C | Nc1n[nH]c2nc3ccccc3nc12 [QUINOXALINE1]

Row | Compound | ΔTm
49 | CCCCc1c(-c2ccc(O)cc2)[nH]c2nccnc12 [ALOISINE A] | 0.4 °C
50 | COc1cc(C[C@H]2C(=O)OC[C@@H]2Cc2ccc(OC)c(OC)c2)ccc1O [ARCTIGENIN] | -0.5 °C

target: Serine/threonine-protein kinase VRK2 (Homo sapiens) (UniProt Q86Y07)
Sequence (Q86Y07 whole entry): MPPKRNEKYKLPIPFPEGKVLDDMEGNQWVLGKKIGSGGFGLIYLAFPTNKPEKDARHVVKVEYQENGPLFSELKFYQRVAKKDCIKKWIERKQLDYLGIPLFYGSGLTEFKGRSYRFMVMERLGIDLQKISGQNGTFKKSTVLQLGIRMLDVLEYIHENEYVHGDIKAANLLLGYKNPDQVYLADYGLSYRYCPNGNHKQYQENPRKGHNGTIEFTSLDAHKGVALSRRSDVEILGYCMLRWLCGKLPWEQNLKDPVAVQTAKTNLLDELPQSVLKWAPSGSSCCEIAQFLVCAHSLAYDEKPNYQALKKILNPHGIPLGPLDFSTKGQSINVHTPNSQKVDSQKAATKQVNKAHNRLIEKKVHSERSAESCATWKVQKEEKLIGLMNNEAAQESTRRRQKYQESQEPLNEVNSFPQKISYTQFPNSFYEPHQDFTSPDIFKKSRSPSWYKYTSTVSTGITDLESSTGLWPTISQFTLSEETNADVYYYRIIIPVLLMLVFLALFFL

Row | ΔTm | Compound
51 | 0.2 °C | Cc1ccc(NC(=O)c2cccc(N(C)C)c2)cc1NC(=O)c1ccc(O)cc1
52 | 2 °C | O=C1NC(=O)c2c1c1c3ccccc3[nH]c1n1cncc21 [ISOGRANULATIMIDE]
53 | 0.7 °C | Nc1n[nH]c2nc3ccccc3nc12 [QUINOXALINE1]

Row | Compound | ΔTm
54 | CCCCc1c(-c2ccc(O)cc2)[nH]c2nccnc12 [ALOISINE A] | 4.2 °C
55 | COc1cc(C[C@H]2C(=O)OC[C@@H]2Cc2ccc(OC)c(OC)c2)ccc1O [ARCTIGENIN] | 0.5 °C
